Laboratory results reported in the NIST ThermoML archive (doi:10.1021/je0504358).

Conditions: Liquid, Twin ebulliometer

O=C1C=CCCC1 [2-cyclohexen-1-one]
Conditions | vapor or sublimation pressure [kPa]
350.4 K | 4.147
353.66 K | 4.786
357.56 K | 5.662
361.48 K | 6.709
366.16 K | 8.095
370.32 K | 9.581
374.97 K | 11.46
379 K | 13.31
380.5 K | 14.06
386.63 K | 17.53
388.4 K | 18.68
391.77 K | 20.95
397.16 K | 25.2
404.53 K | 32.03
407.95 K | 35.56
410.86 K | 39.01
424.23 K | 57.64
445 K | 100.4

CC1CCCCC1=O (stereo unspecified) [2-methylcyclohexanone]
Conditions | vapor or sublimation pressure [kPa]
338.76 K | 3.333
342.2 K | 3.912
348.85 K | 5.267
350.96 K | 5.763
353.34 K | 6.401
355.93 K | 7.129
358.53 K | 7.941
360.73 K | 8.678
363.09 K | 9.543
366.66 K | 10.98
369.65 K | 12.3
372.7 K | 13.79
376.36 K | 15.79
381.72 K | 19.12
384.91 K | 21.37
389.42 K | 24.9
394.59 K | 29.53
398.32 K | 33.29
399.98 K | 35.05
408.17 K | 45.03
411.64 K | 49.98
414 K | 53.52
418.28 K | 60.46
436.94 K | 99.71

CCCCCC=O [hexanal]
Conditions | vapor or sublimation pressure [kPa]
322.27 K | 5.184
325.43 K | 6.001
327.84 K | 6.711
330.22 K | 7.51
333.56 K | 8.713
338.89 K | 10.99
342.12 K | 12.59
347.22 K | 15.55
353.44 K | 19.8
360.11 K | 25.45
366.28 K | 31.91
371.95 K | 38.88
377.98 K | 47.56
402.17 K | 99.72
